The target in data set [1] is EGFR (human epidermal growth factor receptor) (Homo sapiens (Human), UniProt P00533). As to the kind of experiment: In vitro kinase inhibitory activity, EGFR. Type of data set: biochemical. How it is done: (§1) Stop buffer was prepared from 100 mM HEPES, pH 7.5, 0.015% Brij-35, 0.2% Coating Reagent #3, and 50 mM EDTA.
(§2) Kinase reaction was performed according to the following procedures: (1) 2.5× kinase solution was prepared by adding kinase into 1× kinase base buffer; (2) 2.5× peptide solution was prepared by adding FAM-labeled peptide and ATP into 1× kinase base buffer; (3) 2.5× kinase solution (10 μL) was added to each well of the 384-well assay plate containing 5 μL of compound in 10% DMSO and then the assay plate was incubated at room temperature for 10 minutes; (4) 2.5× peptide solution (10 μL) was added to each well of the 384-well assay plate; and (5) stop buffer (25 μL) was added to stop the kinase reaction after incubation at 28° C. for a specified period of time.
(§3) Multifunctional microplate reader (BMG LABTECH, PHER Astar FS) with a 320 nm excitation wavelength was used to read and collected the data of by absorbing light at […], which was converted from the rate of 665 signal/620 signal.
(§4) Conversion data were copied, and then converted to inhibition values with the following formula: percent inhibition=(max−conversion)/(max−min)*100 where “max” stands for the DMSO control value, “conversion” stands for the sample value and “[…]” stands for the no-kinase control value. The data were fitted in XLfit to obtain IC50 values.

For data set [2], the target named is EGFR T790M (human epidermal growth factor receptor T790M mutation) (Homo sapiens (Human), UniProt P00533, T790M). As to the kind of experiment: In vitro kinase inhibitory activity, EGFR T790M. Type of data set: biochemical. How it is done: as §1, §2, §3, §4
A short description of data set [3]: Rat PK (pharmacokinetics after iv and po administration). The class given is in vivo. Particulars: male, SD, plasma; for Vd: read-out: Vss; for bioavailability: po 5 vs iv 2 (g/kg [sic]; mg/kg in method), read-out: F (bioavailability). An excerpt: Materials used include Propranolol (internal standard), methyl alcohol, ammonium acetate, K2EDTA (potassium ethylenediaminetetraacetate), methane acid, acetonitrile, MTBE (methyl tert-butyl ether), Cremophor EL (polyoxyethylated castor oil), KolliphorHS 15 (polyethylene glycol 12-hydroxystearate), DMSO (dimethylsulfoxide), PEG400 (polyethylene glycol 400) and SD rat (male, 180-220 g, 7-8 weeks old, purchased from Hunan Slack King of Laboratory Animal Co., Ltd.), all of which are commercially available.
Each test compound prepared in above examples was completely dissolved in a mixture of 5% DMSO, 5% KolliphorHS 15 and 90% saline.
(1) The test sample stock solution was prepared by dissolving an accurately weighed test sample in DMSO followed by dilution to the concentration of 1 mg/mL with acetonitrile. The stock solution was stored under the condition of −20° C. for later use.
(2) Internal standard solution was prepared by diluting a certain amount of the Propranolol stock solution in the concentration of 1 mg/mL to 100 ng/mL with water.
Samples treated with liquid-liquid extraction and chromatographic separation were analyzed by triple quadrupole tandem mass spectrometer in multiple reaction monitoring (MRM) mode for quantitative analysis.
Pretreatment of plasma sample was performed according to the following procedures: (1) plasma sample (30 μL) was precisely measured, and internal standard (250 μL) was then added to the plasma sample which was then mixed by vortexing; (2) the sample was extracted once with 1 mL of MTBE and then centrifuged at 13000 rpm for 2 minutes at 4° C.; (3) supernatant (800 μL) was aspirated and dried with 96 holes nitrogen gas blowing; (4) the residue was dissolved with 150 μL of a mixture of methanol and water (v/v=1/1) and then mixed by vortexing; and (5) sampling: sample quantity was 8 μL.
Preparation of standard sample was performed according to the following procedures: (1) a pre-determined amount of the compound stock solution was precisely measured, and then was diluted to standard series of solution with acetonitrile; (2) each of the standard solution (20 μL) prepared above was precisely measured and to each was added 180 μL of blank plasma; (3) each sample was mixed by vortexing to obtain series of standard samples in which the plasma concentration was 3, 5, 10, 30, 100, 300, 1000, 3000, 5000 or 10000 ng/mL; and (4) standard curve was established.
The content of each test compound in rat plasma after administration was determined by LC/MS/MS.
Noncompartmental analysis to calculate pharmacokinetic parameters was performed with WinNonlin 6.1 software.

For data set [4], the target named is HER2 (human epidermal growth factor receptor 2) (Homo sapiens (Human), UniProt P04626). In words: In vitro kinase inhibitory activity, HER-2. Type of data set: biochemical. As to the method: as §1
as §2, with “time. […]” for “time.”
as §4

Setting [5] is: iv(2 g/kg) [sic], method says 2 mg/kg.
The mark [6] stands for this setting: po(5 g/kg) [sic], method says 5 mg/kg.

Chain of HER2 (human epidermal growth factor receptor 2) (P04626 23-1255): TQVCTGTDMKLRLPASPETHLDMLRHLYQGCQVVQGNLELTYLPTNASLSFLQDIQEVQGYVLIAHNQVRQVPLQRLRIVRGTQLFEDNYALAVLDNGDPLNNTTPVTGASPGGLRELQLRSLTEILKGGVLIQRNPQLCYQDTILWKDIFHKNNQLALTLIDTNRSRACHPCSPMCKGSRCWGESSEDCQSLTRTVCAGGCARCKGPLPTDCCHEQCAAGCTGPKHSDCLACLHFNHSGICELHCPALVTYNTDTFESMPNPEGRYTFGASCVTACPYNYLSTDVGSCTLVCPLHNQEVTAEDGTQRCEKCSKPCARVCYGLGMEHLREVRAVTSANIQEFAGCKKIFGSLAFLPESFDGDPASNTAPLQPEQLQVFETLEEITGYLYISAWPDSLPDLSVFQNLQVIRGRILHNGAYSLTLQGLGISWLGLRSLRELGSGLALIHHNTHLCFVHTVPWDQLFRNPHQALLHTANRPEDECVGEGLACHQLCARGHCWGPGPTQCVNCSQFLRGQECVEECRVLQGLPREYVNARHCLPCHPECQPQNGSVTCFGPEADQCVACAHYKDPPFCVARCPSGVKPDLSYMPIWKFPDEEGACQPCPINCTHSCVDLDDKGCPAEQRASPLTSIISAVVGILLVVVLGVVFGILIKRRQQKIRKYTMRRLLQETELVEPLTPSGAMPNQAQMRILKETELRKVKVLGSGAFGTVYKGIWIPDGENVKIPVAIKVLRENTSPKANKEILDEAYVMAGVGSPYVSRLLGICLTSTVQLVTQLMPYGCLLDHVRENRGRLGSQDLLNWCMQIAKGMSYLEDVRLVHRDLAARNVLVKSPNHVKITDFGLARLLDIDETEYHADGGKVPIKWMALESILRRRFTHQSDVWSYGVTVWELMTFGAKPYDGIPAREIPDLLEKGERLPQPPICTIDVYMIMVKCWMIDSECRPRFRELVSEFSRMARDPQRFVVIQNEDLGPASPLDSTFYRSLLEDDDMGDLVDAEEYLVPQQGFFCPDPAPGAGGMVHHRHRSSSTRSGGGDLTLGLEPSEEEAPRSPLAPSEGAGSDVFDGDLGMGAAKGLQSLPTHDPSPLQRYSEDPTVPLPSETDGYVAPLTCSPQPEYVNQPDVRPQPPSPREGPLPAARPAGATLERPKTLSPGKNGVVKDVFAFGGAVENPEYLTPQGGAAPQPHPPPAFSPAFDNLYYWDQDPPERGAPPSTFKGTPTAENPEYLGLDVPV
Chain of EGFR (human epidermal growth factor receptor) (P00533 25-1210): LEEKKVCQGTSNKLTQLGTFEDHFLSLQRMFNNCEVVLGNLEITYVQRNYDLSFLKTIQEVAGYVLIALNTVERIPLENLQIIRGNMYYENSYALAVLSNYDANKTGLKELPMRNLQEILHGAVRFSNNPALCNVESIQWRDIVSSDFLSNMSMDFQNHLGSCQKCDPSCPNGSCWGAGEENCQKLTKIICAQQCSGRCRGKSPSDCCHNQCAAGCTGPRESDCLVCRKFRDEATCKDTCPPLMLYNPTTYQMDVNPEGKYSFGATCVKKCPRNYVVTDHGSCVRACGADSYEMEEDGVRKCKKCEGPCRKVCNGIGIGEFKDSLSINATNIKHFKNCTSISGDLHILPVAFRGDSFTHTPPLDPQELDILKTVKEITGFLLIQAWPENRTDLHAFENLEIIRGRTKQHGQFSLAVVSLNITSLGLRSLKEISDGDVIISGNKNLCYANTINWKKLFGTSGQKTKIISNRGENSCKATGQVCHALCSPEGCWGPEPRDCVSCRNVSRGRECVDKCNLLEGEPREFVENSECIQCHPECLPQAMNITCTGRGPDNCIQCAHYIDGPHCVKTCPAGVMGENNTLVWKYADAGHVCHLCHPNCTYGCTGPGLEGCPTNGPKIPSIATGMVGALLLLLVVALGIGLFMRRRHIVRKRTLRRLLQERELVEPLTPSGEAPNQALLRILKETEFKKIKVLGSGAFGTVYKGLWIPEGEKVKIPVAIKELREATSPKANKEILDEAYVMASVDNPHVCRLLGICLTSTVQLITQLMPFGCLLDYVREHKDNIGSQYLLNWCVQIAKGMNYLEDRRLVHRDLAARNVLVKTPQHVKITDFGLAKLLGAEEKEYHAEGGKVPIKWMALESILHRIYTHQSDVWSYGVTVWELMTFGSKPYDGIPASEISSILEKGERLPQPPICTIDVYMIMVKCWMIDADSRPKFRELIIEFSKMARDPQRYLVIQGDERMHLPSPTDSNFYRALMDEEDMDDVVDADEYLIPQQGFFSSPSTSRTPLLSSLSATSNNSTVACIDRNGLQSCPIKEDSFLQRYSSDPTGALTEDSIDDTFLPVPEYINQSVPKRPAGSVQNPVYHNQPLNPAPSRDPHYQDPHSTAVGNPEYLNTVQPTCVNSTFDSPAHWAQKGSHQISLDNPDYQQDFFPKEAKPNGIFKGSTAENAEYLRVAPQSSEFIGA
Chain of EGFR T790M (human epidermal growth factor receptor T790M mutation) (P00533 25-1210 T790M): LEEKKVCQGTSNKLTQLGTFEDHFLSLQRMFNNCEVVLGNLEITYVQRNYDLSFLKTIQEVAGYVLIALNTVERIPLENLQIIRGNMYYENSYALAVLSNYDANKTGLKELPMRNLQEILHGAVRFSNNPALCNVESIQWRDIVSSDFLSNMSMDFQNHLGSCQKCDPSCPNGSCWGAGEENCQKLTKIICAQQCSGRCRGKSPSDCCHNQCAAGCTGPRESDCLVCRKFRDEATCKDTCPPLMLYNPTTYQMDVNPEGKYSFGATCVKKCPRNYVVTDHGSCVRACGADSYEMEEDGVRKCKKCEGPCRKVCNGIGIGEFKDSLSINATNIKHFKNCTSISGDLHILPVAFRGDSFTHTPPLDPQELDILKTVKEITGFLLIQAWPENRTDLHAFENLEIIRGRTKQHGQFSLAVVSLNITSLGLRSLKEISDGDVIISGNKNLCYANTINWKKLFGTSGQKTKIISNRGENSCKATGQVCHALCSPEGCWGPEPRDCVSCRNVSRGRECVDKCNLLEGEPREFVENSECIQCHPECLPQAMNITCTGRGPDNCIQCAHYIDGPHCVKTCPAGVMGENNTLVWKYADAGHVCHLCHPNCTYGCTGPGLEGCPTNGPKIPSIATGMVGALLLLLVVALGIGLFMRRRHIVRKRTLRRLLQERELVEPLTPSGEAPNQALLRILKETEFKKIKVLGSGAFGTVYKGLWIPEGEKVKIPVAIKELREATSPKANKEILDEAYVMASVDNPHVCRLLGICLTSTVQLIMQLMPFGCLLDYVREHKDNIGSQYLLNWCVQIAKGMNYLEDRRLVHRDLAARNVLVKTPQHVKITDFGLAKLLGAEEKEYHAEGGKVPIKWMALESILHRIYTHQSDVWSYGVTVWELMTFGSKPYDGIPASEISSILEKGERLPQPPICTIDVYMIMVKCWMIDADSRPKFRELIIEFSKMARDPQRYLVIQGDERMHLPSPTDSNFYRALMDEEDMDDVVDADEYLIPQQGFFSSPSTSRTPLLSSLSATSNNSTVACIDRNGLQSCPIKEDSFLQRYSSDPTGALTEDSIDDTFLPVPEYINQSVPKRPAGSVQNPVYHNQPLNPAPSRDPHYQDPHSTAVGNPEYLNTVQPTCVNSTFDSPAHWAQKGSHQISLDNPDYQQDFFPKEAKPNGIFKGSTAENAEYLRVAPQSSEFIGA

In data set [1], `COc1cc2ncnc(Nc3ccc(OCc4ccccn4)c(Cl)c3)c2cc1NC(=O)/C=C/CN1C[C@@H]2OCCO[C@@H]2C1` [Example 23, (E)-N-(4-((3-Chloro-4-(pyridin-2-ylmethoxy)phenyl)amino)-7-methoxyquinazolin-6-yl)-4-((4 aR,7aS)tetrahydro-2H-[1,4]dioxino[2,3-c]pyrrol-6(3H)-yl)but-2-enamide] registered a half-maximal inhibitory concentration (IC50) of 60.4 nM. This compound had a half-maximal inhibitory concentration (IC50) in data set [2] of 8.5 nM. In data set [3] (setting [5]), the AUC(0-t) is 7560 ng·h/mL, the Cmax is 2770 ng/mL, the half-life was 3.06 h and the Vd worked out at 0.88 L/kg. Also, the bioavailability in data set [3] is 73.5%. In data set [3] (setting [6]), this compound showed an AUC(0-t) of 13900 ng·h/mL, a maximum concentration (Cmax) of 1930 ng/mL and a half-life of 2.77 h. Moreover, the IC50 in data set [4] is 1.8 nM.
For `CCOc1cc2ncnc(Nc3ccc(OCc4ccccn4)c(Cl)c3)c2cc1NC(=O)/C=C/CN1C[C@@H]2OCCO[C@@H]2C1` [Example 24, (E)-N-(4-((3-Chloro-4-(pyridin-2-ylmethoxy)phenyl)amino)-7-ethoxyquinazolin-6-yl)-4-((4aR,7aS)-tetrahydro-2H-[1,4]dioxino[2,3-c]pyrrol-6(3H)-yl)but-2-enamide], the IC50 amounted to 18.4 nM in data set [1], 4.2 nM in data set [2] and 1.7 nM in data set [4]. The AUC(0-t) in data set [3] (setting [5]) came to 10500 ng·h/mL; in data set [3] (setting [6]), 22900 ng·h/mL. Besides, the results for the Cmax in data set [3] (setting [5]) and in data set [3] (setting [6]) were 2930 ng/mL and 2770 ng/mL, respectively. For the same compound, the half-life in data set [3] (setting [5]) is 3.59 h; in data set [3] (setting [6]) it was 3.49 h. In addition, in data set [3] (setting [5]), the Vd was 0.79 L/kg. Moreover, the bioavailability in data set [3] was found to be 87.1%.
As to `O=C(/C=C/CN1C[C@@H]2OCCO[C@@H]2C1)Nc1cc2c(Nc3ccc(OCc4ccccn4)c(Cl)c3)ncnc2cc1O[C@H]1CCOC1` [Example 25, (E)-N-(4-((3-Chloro-4-(pyridin-2-ylmethoxy)phenyl)amino)-7-(((S)-tetrahydrofuran-3-yl)oxy)quinazolin-6-yl)-4-((4aR,7aS)-tetrahydro-2H-[1,4]dioxino[2,3-c]pyrrol-6(3H)-yl)but-2-enamide], the IC50 stood at 8.6 nM in data set [1], 5.9 nM in data set [2] and 2.5 nM in data set [4]. The AUC(0-t) turned out to be 4530 ng·h/mL in data set [3] (setting [5]) and 474 ng·h/mL in data set [3] (setting [6]). Moreover, the Cmax in data set [3] (setting [5]) came out at 4110 ng/mL; in data set [3] (setting [6]), 73 ng/mL. Further, the values for the half-life in data set [3] (setting [5]) and in data set [3] (setting [6]) were 1.42 h and 4.42 h, respectively. Further, the Vd in data set [3] (setting [5]) is 0.65 L/kg. The bioavailability in data set [3] was 5.94%.
As to `COc1cc2ncnc(Nc3ccc4c(cnn4Cc4cccc(F)c4)c3)c2cc1NC(=O)/C=C/CN1C[C@@H]2OCCO[C@@H]2C1` [Example 27, (E)-N-(4-((1-(3-Fluorobenzyl)-1H-indazol-5-yl)amino)-7-methoxyquinazolin-6-yl)-4-((4aR,7aS)-tetra hydro-2H-[1,4]dioxin[2,3-c]pyrrol-6(3H)-yl)but-2-enamide], half-maximal inhibition in data set [1] (IC50) was put at 7.9 nM. This compound also showed an IC50 in data set [2] of 22.9 nM. In data set [3] (setting [5]), the AUC(0-t) came out at 1190 ng·h/mL, the Cmax amounted to 923 ng/mL, the half-life was 1.97 h and the Vd amounted to 3.65 L/kg. The bioavailability in data set [3] came to 10.8%. Moreover, in data set [3] (setting [6]), the AUC(0-t) is 303 ng·h/mL, the Cmax is 67.8 ng/mL and the half-life is 2.33 h. The 50% inhibitory concentration (IC50) in data set [4] came to 2.2 nM.
`CCOc1cc2ncnc(Nc3ccc4c(cnn4Cc4cccc(F)c4)c3)c2cc1NC(=O)/C=C/CN1C[C@@H]2OCCO[C@@H]2C1` [Example 28, (E)-N-(7-Ethoxy-4-((1-(3-fluorobenzyl)-1H-indazol-5-yl)amino)quinazolin-6-yl)-4-((4aR,7aS)-tetrahydro-2H-[1,4]dioxino[2,3-c]pyrrol-6(3H)-yl)but-2-enamide]: the half-maximal inhibitory concentration (IC50) in data set [1] is 40.1 nM. Besides, inhibition in data set [2] was half-maximal at 14.5 nM (IC50). In addition, in data set [3] (setting [5]), the AUC(0-t) worked out at 692 ng·h/mL, the Cmax was found to be 450 ng/mL, the half-life was 1.99 h and the Vd is 6.66 L/kg. The bioavailability in data set [3] was 41.5%. Also, in data set [3] (setting [6]), the AUC(0-t) came to 721 ng·h/mL, the Cmax worked out at 147 ng/mL and the half-life is 1.41 h. Further, in data set [4], inhibition was half-maximal at 1.6 nM (IC50).
For `COc1cc2ncnc(Nc3ccc(Cl)c(Cl)c3F)c2cc1NC(=O)/C=C/CN1C[C@@H]2OCCO[C@@H]2C1` [Example 31, (E)-N-(4-((3,4-Dichloro-2-fluorophenyl)amino)-7-methoxyquinazolin-6-yl)-4-((4aR,7aS)-tetrahydro-2H-[1,4]dioxino[2,3-c]pyrrol-6(3H)-yl)but-2-enamide], the half-maximal inhibitory concentration (IC50) was found to be 2.1 nM in data set [1], 6.4 nM in data set [2] and 9.1 nM in data set [4]. The AUC(0-t) was 2990 ng·h/mL in data set [3] (setting [5]) and 6980 ng·h/mL in data set [3] (setting [6]). For the same compound, the Cmax in data set [3] (setting [5]) amounted to 1210 ng/mL; in data set [3] (setting [6]) it was 794 ng/mL. The results for the half-life in data set [3] (setting [5]) and in data set [3] (setting [6]) were 3.66 h and 3.16 h, respectively. Besides, the Vd in data set [3] (setting [5]) came out at 2.58 L/kg. In data set [3], the bioavailability stood at 93.5%.
For `CCOc1cc2ncnc(Nc3ccc(Cl)c(Cl)c3F)c2cc1NC(=O)/C=C/CN1C[C@@H]2OCCO[C@@H]2C1` [Example 32, (E)-N-(4-((3,4-Dichloro-2-fluorophenyl)amino)-7-ethoxyquinazolin-6-yl)-4-((4aR,7aS)-tetrahydro-2H-[1,4]dioxino[2,3-c]pyrrol-6(3H)-yl)but-2-enamide], half-maximal inhibition in data set [1] (IC50) was put at 1.2 nM. The IC50 in data set [2] turned out to be 4 nM. In addition, in data set [3] (setting [5]), the AUC(0-t) amounted to 2170 ng·h/mL, the highest level (Cmax) was 1000 ng/mL, the half-life was 2.95 h and the Vd is 2.97 L/kg. In addition, in data set [3], the bioavailability was found to be 108%. In data set [3] (setting [6]), this compound had an area under the curve AUC(0-t) of 6220 ng·h/mL, a Cmax of 748 ng/mL and a half-life of 2.97 h. Further, the midpoint of inhibition in data set [4], the IC50, lay at 7 nM.
For the compound `O=C(/C=C/CN1C[C@@H]2OCCO[C@@H]2C1)Nc1cc2c(Nc3ccc(Cl)c(Cl)c3F)ncnc2cc1O[C@H]1CCOC1` [Example 34, (E)-N-(4-((3,4-Dichloro-2-fluorophenyl)amino)-7-(((S)-tetrahydrofuran-3-yl)oxy)quinazolin-6-yl)-4-((4aR,7aS)-tetrahydro-2H-[1,4]dioxino[2,3-c]pyrrol-6(3H)-yl)but-2-enamide], in data set [1], the IC50 amounted to 3.3 nM. Further, it took 7 nM to reach half-maximal inhibition in data set [2] (IC50). In data set [3] (setting [5]), the exposure AUC(0-t) came to 951 ng·h/mL, the Cmax was 645 ng/mL, the half-life is 1.15 h and the Vd came to 3.18 L/kg. For the same compound, the bioavailability in data set [3] is 68.7%. In data set [3] (setting [6]), this compound gave an AUC(0-t) of 1550 ng·h/mL, a Cmax of 378 ng/mL and a half-life of 1.4 h. The compound also returned an IC50 in data set [4] of 20.3 nM.

These data come from US9556191B2, “Aminoquinazoline derivatives and their salts and methods of use thereof” (SUNSHINE LAKE PHARMA CO., LTD, priority 2013, dated 2017).
